Laboratory results from PubChem BioAssay AID1963845 (Molecular Pharmacology Branch, DTP, NCI, 2024).

System: 429239-143-T-J1-PDC complex spheroid viability
Assay: Anticancer human tumor 429239-143-T-J1-PDC patient-derived small cell lung carcinoma cell line growth inhibition [POLQ]
Conditions: for IC50: curve of first compound; for viability, T/C: stronger effect = lower value; active = viability on the fitted dose curve at most 10% of control; inactive = the rest
Outline: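 Three-cell-type spheroids modelling solid tumor plus stroma served as the readout system; POL inhibitors were tested individually and in combination, concentration ranges set by clinical Cmax where known.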

[1] = second compound 0.0316 µM, first compound 0.0316 µM
[2] = second compound 0.0316 µM, first compound 0.1 µM
[3] = second compound 0.0316 µM, first compound 0.316 µM
[4] = second compound 0.0316 µM, first compound 1 µM
[5] = second compound 0.1 µM, first compound 0.0316 µM
[6] = second compound 0.1 µM, first compound 0.1 µM
[7] = second compound 0.1 µM, first compound 0.316 µM
[8] = second compound 0.1 µM, first compound 1 µM
[9] = second compound 0.316 µM, first compound 0.0316 µM
[10] = second compound 0.316 µM, first compound 0.1 µM
[11] = second compound 0.316 µM, first compound 0.316 µM
[12] = second compound 0.316 µM, first compound 1 µM
[13] = second compound 1 µM, first compound 0.0316 µM
[14] = second compound 1 µM, first compound 0.1 µM
[15] = second compound 1 µM, first compound 0.316 µM
[16] = second compound 1 µM, first compound 1 µM
[17] = second compound 3.16 µM, first compound 0.0316 µM
[18] = second compound 3.16 µM, first compound 0.1 µM
[19] = second compound 3.16 µM, first compound 0.316 µM
[20] = second compound 3.16 µM, first compound 1 µM
[21] = second compound 10 µM, first compound 0.0316 µM
[22] = second compound 10 µM, first compound 0.1 µM
[23] = second compound 10 µM, first compound 0.316 µM
[24] = second compound 10 µM, first compound 1 µM
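Note: luminescence signal used as surrogate measure of viable cells; spheroids exposed to compounds for seven days before readout.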
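Throughout, for viability, T/C: 100% = DMSO vehicle control viability as luminescence relative to vehicle.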

COc1cccc(OCCCN)c1-c1cc(Nc2cnc(C#N)cn2)n[nH]1 + Nc1ccc(C#CCN(C(=O)Cc2ncc(C(F)(F)F)cc2C(F)(F)F)c2ccc(F)cc2)nn1
219 nM: IC50 (second compound 0.316 µM)
inactive: viability, T/C (second compound 0.0316 µM, first compound 0.00316 µM) 91.8% | viability, T/C (second compound 0.0316 µM, first compound 0.01 µM) 94.8% | viability, T/C [1] 87.6% | viability, T/C [2] 72.7% | viability, T/C [3] 55.2% | viability, T/C [4] 33.3% | viability, T/C (second compound 0.1 µM, first compound 0.00316 µM) 95.1% | viability, T/C (second compound 0.1 µM, first compound 0.01 µM) 97.2% | viability, T/C [5] 83.1% | viability, T/C [6] 71.3% | viability, T/C [7] 49.4% | viability, T/C [8] 28.7% | viability, T/C (second compound 0.316 µM, first compound 0.00316 µM) 103% | viability, T/C (second compound 0.316 µM, first compound 0.01 µM) 98.9% | viability, T/C [9] 98.7% | viability, T/C [10] 65.3% | viability, T/C [11] 45.4% | viability, T/C [12] 33.6% | viability, T/C (second compound 1 µM, first compound 0.00316 µM) 102% | viability, T/C (second compound 1 µM, first compound 0.01 µM) 90.2% | viability, T/C [13] 83.8% | viability, T/C [14] 68.8% | viability, T/C [15] 40.3% | viability, T/C [16] 27.1% | viability, T/C (second compound 3.16 µM, first compound 0.00316 µM) 105% | viability, T/C (second compound 3.16 µM, first compound 0.01 µM) 89.1% | viability, T/C [17] 90.6% | viability, T/C [18] 74.5% | viability, T/C [19] 40.3% | viability, T/C [20] 24.5% | viability, T/C (second compound 10 µM, first compound 0.00316 µM) 102% | viability, T/C (second compound 10 µM, first compound 0.01 µM) 86.5% | viability, T/C [21] 75.7% | viability, T/C [22] 60% | viability, T/C [23] 36.2% | viability, T/C [24] 26.1%
160 nM: IC50 (second compound 10 µM)
234 nM: IC50 (second compound 3.16 µM)
224 nM: IC50 (second compound 1 µM)
305 nM: IC50 (second compound 0.1 µM)
398 nM: IC50 (second compound 0.0316 µM)

Nc1ccn(C2OC(CO)C(O)C2(F)F)c(=O)n1 (centres undefined) + Nc1ccc(C#CCN(C(=O)Cc2ncc(C(F)(F)F)cc2C(F)(F)F)c2ccc(F)cc2)nn1
46.2 nM: IC50 (second compound 1 µM)
50.6 nM: IC50 (second compound 10 µM)
47.6 nM: IC50 (second compound 3.16 µM)
48.3 nM: IC50 (second compound 0.316 µM)
inactive: viability, T/C [1] 77.1% | viability, T/C [5] 77.7% | viability, T/C [9] 75% | viability, T/C [13] 70.9% | viability, T/C [17] 73.6% | viability, T/C [21] 78%
49.9 nM: IC50 (second compound 0.1 µM)
49.4 nM: IC50 (second compound 0.0316 µM)
active: viability, T/C [2] 7.33% | viability, T/C [3] 5.99% | viability, T/C [4] 6.45% | viability, T/C (second compound 0.0316 µM, first compound 3.16 µM) 6.94% | viability, T/C (second compound 0.0316 µM, first compound 10 µM) 6.48% | viability, T/C [6] 7.8% | viability, T/C [7] 7.04% | viability, T/C [8] 5.04% | viability, T/C (second compound 0.1 µM, first compound 3.16 µM) 8.53% | viability, T/C (second compound 0.1 µM, first compound 10 µM) 6.25% | viability, T/C [10] 7.13% | viability, T/C [11] 7.6% | viability, T/C [12] 6.15% | viability, T/C (second compound 0.316 µM, first compound 3.16 µM) 6.48% | viability, T/C (second compound 0.316 µM, first compound 10 µM) 7.03% | viability, T/C [14] 7.27% | viability, T/C [15] 7.19% | viability, T/C [16] 7.47% | viability, T/C (second compound 1 µM, first compound 3.16 µM) 6.86% | viability, T/C (second compound 1 µM, first compound 10 µM) 6.1% | viability, T/C [18] 7.11% | viability, T/C [19] 6.48% | viability, T/C [20] 5.97% | viability, T/C (second compound 3.16 µM, first compound 3.16 µM) 6.64% | viability, T/C (second compound 3.16 µM, first compound 10 µM) 8.77% | viability, T/C [22] 9.42% | viability, T/C [23] 7.4% | viability, T/C [24] 7.48% | viability, T/C (second compound 10 µM, first compound 3.16 µM) 6.25% | viability, T/C (second compound 10 µM, first compound 10 µM) 7%
